Results taken from patent US4280993A, “Process for determining the concentration of benzodiazepines in a body fluid” (priority 1978, dated 1981).

Tests used:
[1] = tested on: dopamine receptor sites in mamalian brain; details: cited from earlier work
[2] = tested on: receptor powder (ox brain tissue), ^3 H-flunitrazepam binding; experiment: Displacement of 3H-flunitrazepam from freeze-dried ox brain receptor powder (lorazepam standard curve); details: for Counts per minute: 50 μl added, bound 3H-flunitrazepam
Protocol: (a) A 25 mM solution of a sodium phosphate buffer, pH 7.0 (Solution I).
(b) A solution containing 18 ng and 5 μCi of ^3 H-flunitrazepam in 10 ml of 10% ethanol in Solution I (Solution II).
(c) About 0.3 g of a receptor powder, prepared as described below, suspended in 30 ml of Solution I (Suspension III).
(d) A standard solution (IV) containing 20 ng/ml of lorazepam, and prepared by dilution with the buffer I of 0.5 ml of 93% ethanolic solution (IVa) of lorazepam, containing 1 μg/ml of lorazepam, to a volume of 25 ml.
To 15 ml test tubes, each containing 400 μl of the receptor suspension III, are added 100 μl of Solution II and 50 μl of the sample, or 50 μl of the standard solution IV. The tubes are incubated at room temperature for at least 20 minutes and maximum 2 hours. Then, 10 ml of isothermic I are added, and the mixture is immediately filtered through a Whatman GF/C glassfibre filter and washed with 10 ml of isothermic buffer solution I.
The washed filter is placed in a scintillation vial, containing 5 ml of conventional scintillation fluid, and counted shortly after for 0.5 minute, or better the next day for 5 minutes.
For the preparation of a standard curve, a series of dilutions of the lorazepam standard solution (IV) is prepared by diluting with the buffer I, and assaying is performed in duplicate with 50 μl of each of these dilutions being added to the test tubes, each of which contains 400 μl of the suspension III and 100 μl of the solution II.
The average of counts co from the controls is 3187 from which is subtracted the average of the counts from the blanks, which is 160, to give co -cblank.
The count cx from each sample also has to be reduced by the average counts from the blanks, resulting from background radiation, to give cx -cblank.
In the accompanying drawing, the test results are plotted as co -cblank/cx -cblank versus the concentration of lorazepam, and the standard curve, therefore, can be used for quantitative determination of the benzodiazepine contents of samples.
The receptor powder used in the process described above was ox brain tissue which had been homogenized in 3 volumes of iced 1M sucrose solution whereafter the homogenate had been freeze-dried.

| Structure (SMILES) | binding to dopamine receptor sites [1] | c o - cblank / c x - cblank ([2]; drug 6.25 ng/ml) | Counts per minute ([2]; drug 6.25 ng/ml) [counts per minute] | c o - cblank / c x - cblank ([2]; drug 12.5 ng/ml) | Counts per minute ([2]; drug 12.5 ng/ml) [counts per minute] | c o - cblank / c x - cblank ([2]; drug 25 ng/ml) | Counts per minute ([2]; drug 25 ng/ml) [counts per minute] | c o - cblank / c x - cblank ([2]; drug 62.5 ng/ml) | Counts per minute ([2]; drug 62.5 ng/ml) [counts per minute] | c o - cblank / c x - cblank ([2]; drug 125 ng/ml) | Counts per minute ([2]; drug 125 ng/ml) [counts per minute] | c o - cblank / c x - cblank ([2]; drug 250 ng/ml) |
| --- | --- | --- | --- | --- | --- | --- | --- | --- | --- | --- | --- | --- |
| O=C(CCCN1CCC2(CC1)C(=O)NCN2c1ccccc1)c1ccc(F)cc1 [^3 H-spiroperidol] | bind selectively and with high affinity | – | – | – | – | – | – | – | – | – | – | – |
| O=C1Nc2ccc(Cl)cc2C(c2ccccc2Cl)=NC1O (stereo not drawn) [lorazepam, 7-chloro-5-(2-chlorophenyl)-3-hydroxy-2,3-dihydro-1H-1,4-benzodiazepin-2-one] | – | 1.41 | 2313 | 1.73 | 1910 | 2.30 | 1477 | 3.86 | 944 | 6.87 | 601 | 12.51 |
